# Measurements as given in patent US9757356B2 (CHONNAM NATIONAL UNIVERSITY HOSPITAL, priority 2015, dated 2017).
# Experiments:
# [1] = test system: cardiac fibroblasts (cFBs); test: BrdU cell proliferation assay, cardiac fibroblasts in cardiomyocyte/cardiac fibroblast co-culture; format: cell-based, rat
# Protocol: (§1) Hearts of two-day-old rats were removed and washed with physiological saline. Thereafter, left cardiac muscles were separated from the hearts in a sterilization cabinet, and microtomed into segments. These myocardial tissues were added to a collagenase enzyme solution, reacted at 37° C. while stirring, and then centrifuged to collect only the supernatant which were then kept in a cell culture flask. After an hour, cardiomyocytes which floated when the supernatant was transferred to a new culture flask were separated from cardiac fibroblasts attached to the bottom of the cell culture flask. At this point, both the cardiomyocytes and the cardiac fibroblasts were cultured in a Dulbecco's modified Eagle's medium (DMEM) supplemented with 10% fetal bovine serum (FBS) and then used for experiments.
# (§2) After 2 days and 5 days, the proliferation of cells was quantified.
# (§3) To determine the level of new DNA synthesis, a cell proliferation assay was performed by adding bromodeoxyuridine (BrdU) to a cell culture broth in advance to incorporate BrdU into DNAs of cells and performing a chromogenic reaction using an anti-BrdU antibody.
# Then, cells which were not stained with cardiac troponin I but stained with DAPI were regarded as cardiac fibroblasts and then counted.
# [2] = test system: macrophage cell line RAW264.7; test: iNOS expression in LPS-stimulated macrophages, Western blotting; format: cell-based, mouse; conditions: RAW264.7, LPS 100 ng/mL, BIO 0, 1, 2.5 and 5 μM, FIG. 5
# Protocol: A mouse macrophage cell line RAW264.7 (Korean Cell Line Bank) was cultured in a DMEM broth supplemented with 10% fetal bovine serum, and lipopolysaccharide (LPS) was added at a concentration of 100 ng/mL to the culture broth to initiate inflammation of macrophages.
# MI animal model [3] = test: Echocardiography of cardiac function in MI animal model; format: in vivo, rat; conditions: MI rats, 0.2 mg/body weight intra-abdominally daily
# Protocol: (§4) To induce the onset of myocardial infarction, first of all, rats weighing 200 to 230 g were anesthetized with ketamine (50 mg/kg) and xylazine (5 mg/kg), and the chests of the rats were shaved and disinfected. An anesthesia ventilator was installed to manage the airway of the rat, and the chest was incised to expose the heart. Then, a cardiac muscle was sutured in a region of the left anterior descending artery (LAD) to block a blood flow, thereby establishing an MI animal model.
# (§5) After two weeks, the rats were anesthetized, and subjected to echocardiography to examine the cardiac functions.
# In this case, the indices have the following meanings. • IVSd; thickness of interventricular septum (diastole) • IVSs; thickness of interventricular septum (systole) • LVIDd; thickness of left ventricular internal dimension (diastole) • LVIDs; thickness of left ventricular internal dimension (systole) • LVPWd; left ventricle posterior wall thickness (diastole) • LVPWs; left ventricle posterior wall thickness (systole) • EF; ejection fraction • FS; fractional shortening
# MI animal model [4] = test: Macrophage phenotype (CD68/Arg1 immunofluorescence) in cardiac muscle of MI animal model; format: in vivo, rat; conditions: MI rats, 2nd week after onset of myocardial infarction, FIG. 6
# Protocol: Specifically, a slide for myocardial infarction heart tissues was treated with an anti-CD68 antibody and an anti-Arg1 antibody, and a fluorescence image was visualized using a secondary antibody. Then, the tissues were observed under a confocal microscope with a magnification of 800 times. Since the macrophages in the tissues expressed CD68, the macrophages were detected using the anti-CD68 antibody. Also, since a marker used to distinguish the characteristics of the macrophages in the tissues was iNOS in the case of the inflammatory M1 macrophages and arginase 1 (Arg1) in the case of the anti-inflammatory M2 macrophages, the macrophages were stained with an anti-inflammatory marker Arg1 for macrophages in order to determine how many the phenotype of the macrophages in the heart was converted into the M2 type at the 2nd week after the onset of myocardial infarction.
# MI animal model [5] = test: Myocardial fibrosis by Masson's trichrom staining in MI animal model; format: in vivo, rat; conditions: MI rats, MI+BIO vs MI+vehicle, FIG. 4
# Protocol: as §4, §5
# To quantify myocardial fibrosis, the heart tissues were also removed, fixed with formalin, embedded in a paraffin block, and then microtomed into sections having a thickness of 10 μm. Thereafter, the sections were histologically stained using a Masson's trichrom method.
# cardiomyocytes (CMs) = test: BrdU cell proliferation assay, cardiomyocytes in cardiomyocyte/cardiac fibroblast co-culture; format: cell-based, rat; conditions: BIO 2.5 μM and 5 μM, after 2 days and 5 days, FIG. 1
# Protocol: as §1, §2, §3
# GSK3β = biological target: T1, GSK3β (Rattus norvegicus, UniProt P18266); test: p-GSK3β expression in cardiac fibroblasts, Western blotting; format: cell-based; conditions: cardiac fibroblasts, 0, 0.25, 2.5 and 5 μM for 2 days, FIG. 7
# T1 construct: endogenous in cells; host or cells: cardiac fibroblasts (primary culture)
# T1 sequence (P18266 whole entry): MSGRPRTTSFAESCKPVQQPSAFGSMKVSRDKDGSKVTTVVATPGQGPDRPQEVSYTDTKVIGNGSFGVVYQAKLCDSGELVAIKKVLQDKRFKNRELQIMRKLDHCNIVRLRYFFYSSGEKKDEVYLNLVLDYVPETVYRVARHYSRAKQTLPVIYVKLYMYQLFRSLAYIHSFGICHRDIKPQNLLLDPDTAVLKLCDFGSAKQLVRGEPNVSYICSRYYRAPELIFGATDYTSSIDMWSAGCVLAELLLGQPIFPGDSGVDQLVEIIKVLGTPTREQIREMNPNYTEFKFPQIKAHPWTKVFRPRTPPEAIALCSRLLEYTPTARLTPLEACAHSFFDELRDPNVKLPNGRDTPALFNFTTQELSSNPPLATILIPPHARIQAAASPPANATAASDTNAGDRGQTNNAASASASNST
# Protocol: Since GSK3β was in an inert state when phosphorylated, an increase in expression level of p-GSK3β was determined using Western blotting in order to evaluate the inhibition of GSK3β.
# [6] = echocardiography after two weeks
"expression level of p-GSK3β (inert form), GSK3β inhibition (GSK3β)",Compound,"BrdU (+) cFB/total cFB, proliferation rate of dividing cardiac fibroblasts ([1]; co-culture, BIO 2.5 μM and 5 μM, FIG. 2)",expression of iNOS (inflammatory marker) [2],"diastolic and systolic functions of the heart (MI animal model [3]; after two weeks, vs MI+saline)",EDV (MI animal model [3]; [6]),EF; ejection fraction (MI animal model [3]; [6]),ESV (MI animal model [3]; [6]),FS; fractional shortening (MI animal model [3]; [6]),IVSd; thickness of interventricular septum (diastole) (MI animal model [3]; [6]),IVSs; thickness of interventricular septum (systole) (MI animal model [3]; [6]),LVIDd; thickness of left ventricular internal dimension (diastole) (MI animal model [3]; [6]),LVIDs; thickness of left ventricular internal dimension (systole) (MI animal model [3]; [6]),LVPWd; left ventricle posterior wall thickness (diastole) (MI animal model [3]; [6]),LVPWs; left ventricle posterior wall thickness (systole) (MI animal model [3]; [6]),SV (MI animal model [3]; [6]),Arg1-expressing (anti-inflammatory M2 type) macrophages in the cardiac muscles (MI animal model [4]),"fibrosis regions (blue), myocardial fibrosis (MI animal model [5])","BrdU (+) CM/total CM, proliferation rate of dividing cardiomyocytes (cardiomyocytes (CMs))","inhibitory effect on the proliferation of the cardiac fibroblasts ([1]; BIO 5 μM and 10 μM vs LiCl, same manner as Example 3, FIG. 8)"
–,"O=C1Nc2cc(Br)ccc2/C1=C1/Nc2ccccc2/C1=N\O [BIO, (2′Z,3′E)-6-bromoindirubin-3′-oxime]",significantly decreased,lowered in a concentration-dependent manner,well preserved,1.563 ± 0.308,41.313 ± 6.823,0.911 ± 0.251,18.262 ± 3.525,0.079 ± 0.013,0.084 ± 0.028,0.900 ± 0.066,0.736 ± 0.074,0.089 ± 0.023,0.115 ± 0.019,0.651 ± 0.116,prevailed,significantly reduced,significantly increased,–
increased,"[Cl-].[Li+] [LiCl, reference compound]",–,–,–,–,–,–,–,–,–,–,–,–,–,–,–,–,–,not observed
